Experimental findings from paper PMC9138991, “Effect of Trimethine Cyanine Dye- and Folate-Conjugation on the In Vitro Biological Activity of Proapoptotic Peptides” (Biomolecules, 2022) are described below.

Where a SMILES comes first, the peptide text is derived from it. Side-chain parts run from the residue outwards. [ ]: non-standard residue; d: D form. The star is where a group is joined. X1 = CN1/C(=C\C=C\C2=[N+](CCCCCC(=O)*)c3ccccc3C2(C)C)C(C)(C)c2ccccc21; Pteroyl = Nc1nc2ncc(CNc3ccc(C(=O)*)cc3)nc2c(=O)[nH]1; Cha = N[C@@H](CC1CCCCC1)C(=O)O; dCha = N[C@H](CC1CCCCC1)C(=O)O

Holding throughout (type): cell-based, human
One assay has as its system KB cells. Description: Cell viability assay (CellTiter-Blue), KB cells. The conditions noted are these: 7 × 10^3 cells per well, folic acid-depleted RPMI-1640 + 10% FBS, 1% DMSO, 24 h at 37 °C, then CellTiter-Blue 4 h, three biological replicates fitted in Origin, standard error in brackets. As to the method: (§1) KB and MCF7 cells were kindly gifted by Prof. Arwyn T. Jones (Cardiff University), HEK293 cells were purchased from Public Health England, and SK-OV-3 cells were purchased from National Collection of Authenticated Cell Cultures (https://cell-bank.org.cn/). Cells were routinely tested for mycoplasma infection. KB and SK-OV-3 cells were maintained in T75 flasks at 37 °C in a 5% CO2 atmosphere in folic acid-depleted Roswell Park Memorial Institute (RPMI)-1640 medium supplemented with 10% (v/v) fetal bovine serum (FBS). MCF7 and HEK293 cells were maintained in T75 flasks at 37 °C in a 5% CO2 atmosphere in Dulbecco’s Modified Eagle’s medium (DMEM) supplemented with 10% (v/v) FBS. Cells were maintained at a sub-confluent monolayer and split at 80–85% confluency. For splitting, cells were washed with PBS, trypsinized in 1 mL of trypsin, and 200 µL of the 1000 µL trypsin cell suspension was re-suspended in 12 mL fresh DMEM containing 10% (v/v) FBS in a new T75 flask. KB and SK-OV-3 cells were used for biological experiments after being maintained for at least 10 days in folic acid-depleted RPMI-1640 medium.
(§2) SK-OV-3, MCF7, and HEK293 cells were seeded at a density of 2 × 10^4 cells per well in a Nunc™ MicroWell™ 96-well plate and grown at 37 °C in a 5% CO2 atmosphere in DMEM supplemented with 10% (v/v) FBS for 24 h. KB cells were seeded at a density of 7 × 10^3 cells per well in a 96-well plate and grown at 37 °C in a 5% CO2 atmosphere in folic acid-depleted RPMI-1640 medium supplemented with 10% (v/v) FBS for 24 h. Stock solutions of compounds 2–6 and 11–13 were obtained by dissolving the compounds in sterile deionized water. Compounds 1, and 7–10 were dissolved in pure DMSO. The stock solutions were diluted into the proper medium (according to the cell line tested) supplemented with 10% FBS to the appropriate concentration, and cells in each well were incubated with 100 µL of the solution. The solutions in each well were then adjusted to a concentration of 1% (v/v) DMSO. After 24 h at 37 °C, 20 µL of CellTiter-Blue™ was added to each well. The plate was incubated for another 4 h at 37 °C before analysis on a Perkin Elmer Victor X plate reader (excitation 531 nm; emission 595 nm). Each data point was calculated from a minimum of nine values resulting from three biological replicates (i.e., cells split from three different passages); each biological replicate is calculated from three technical replicates (i.e., cells split from the same passage). Value from media-only with CellTiter-Blue™ was set at 0% viability. This value was then subtracted from the values from cell-only (i.e., non-treated) wells with CellTiter-Blue™ in each biological replicate and set as 100% viability. For treatments of Cy3-containing compounds, blanks were generated with cell-free wells containing the compounds incubated for 24 h before addition of CellTiter-Blue™. The fluorescent reading for these wells was deducted from the treatment readings. Dose-response fitting curves were generated using Origin, version 2019b, OriginLab Corporation, Northampton, MA, USA (Figures S21–S24, Supplementary Materials).
(§3) Comparison of cytotoxicity fitting curves was achieved by applying the extra sum-of-squares F test, performed using GraphPad Prism version 9 for Windows, GraphPad Software, La Jolla, California, USA (https://www.graphpad.com/). […] Statistical analysis on the flow cytometry data was achieved by applying the unpaired two-tailed t-test test, performed using GraphPad Prism version 9 for Windows, GraphPad Software, La Jolla California USA, USA (https://www.graphpad.com/).
(§4) Cytotoxicity of 1–13 was evaluated using the CellTiter-Blue assay on KB, MCF7, SK-OV-3, and HEK293 cells. KB cells are derived from human cervical cancer, while SK-OV-3 cells are derived from human ovarian cancer. […] This feature is of particular relevance in anticancer applications, as it can be exploited for selective targeting and delivery. […]

For assay [1], the system named is mitochondria of SK-OV-3 cells. Description: Confocal microscopy, colocalisation with MitoTracker Green FM, SK-OV-3 cells. The settings on record: 10 µM conjugate, 10 min at 37 °C; for Pearson's correlation coefficient of MitoTracker Green and Cy3 fluorescence: imaged at 20X; for Pearson's correlation coefficient of MitoTracker Green FM and Cy3 fluorescence: imaged at 63X. As to the method: (§5) SK-OV-3 and MCF7 were seeded at a density of 1 × 10^6 cells per well in glass-bottom culture dishes and grown at 37 °C in a 5% CO2 atmosphere in medium supplemented with 10% (v/v) FBS for 24 h. Cells were washed once with the RPMI-1640 medium supplemented with 10% (v/v) FBS before staining. Compounds 1, 5–10 were diluted into the RPMI-1640 medium supplemented with 10% (v/v) FBS to 10 μM and then added to the culture dishes, respectively. After 10-min incubation at 37 °C, cells were washed with RPMI-1640 medium supplemented with 10% (v/v) FBS. Cells were then treated with 50 nM MitoTracker Green FM and 10 μg/mL Hoechst33258 pre-formulated with RPMI-1640 medium supplemented with 10% (v/v) FBS and then incubated for another 10 min at 37 °C before analysis on ZEISS LSM 900 with Airyscan 2. The results were analyzed using Image J software (Figure 3 and Figures S4–S7 in Supplementary Materials).
(§6) Figure 3 Confocal microscopy images of SK-OV-3 and MCF7 cells treated with Cy3-containing conjugates. Cells were treated with 10 µM of the indicated conjugate for 10 min at 37 °C, washed, stained with 50 nM MitoTracker Green FM and 10 μg/mL Hoechst33258 for 10 min at 37 °C, washed, and imaged at 63X. Pearson’s correlation coefficients of MitoTracker Green FM and Cy3 fluorescence for compounds 1, 5, 6, 7, 8, 9, and 10 in SK-OV-3 and MCF cells are 0.75/0.64, 0.73/0.81, 0.91/0.61, 0.78/0.63, 0.85/0.69, 0.43/0.82, and 0.78/0.60, respectively. Excitation wavelengths for Hoechst33258, MitoTracker Green FM and Cy3 were set as 405, 488, and 561 nm, respectively. Scale bars denote 25 μm. Additional images, including the results of Hoechst33258 staining, are shown in Figure S4 (SK-OV-3 at 20X), Figure S5 (SK-OV-3 at 63X), Figure S6 (MCF7 at 20X) and Figure S7 (MCF7 at 63X), Supplementary Materials.

For a further assay, the system named is MCF7 cells. Description: Cell viability assay (CellTiter-Blue), MCF7 cells. The conditions noted are these: MCF7 cells, 2 × 10^4 cells per well, DMEM + 10% FBS, 1% DMSO, 24 h at 37 °C, then CellTiter-Blue 4 h; three biological replicates fitted in Origin, standard error in brackets. As to the method: as §1, §2, §3, §4
A general note: Alamar Blue is a resazurin reagent that responds to reducing activity.

The next assay relates to HEK293 cells. Description: Cell viability assay (CellTiter-Blue), HEK293 cells. The conditions noted are these: 2 × 10^4 cells per well, DMEM + 10% FBS, 1% DMSO, 24 h at 37 °C, then CellTiter-Blue 4 h, three biological replicates fitted in Origin, standard error in brackets. As to the method:
as §1, §2, §3, §4

Another assay concerns SK-OV-3 cells. Description: Cell viability assay (CellTiter-Blue), SK-OV-3 cells. The settings on record: 2 × 10^4 cells per well, medium + 10% FBS, 1% DMSO, 24 h at 37 °C, then CellTiter-Blue 4 h, three biological replicates fitted in Origin, standard error in brackets. As to the method:
as §1, §2, §3, §4

In assay [2] the test system is mitochondria of MCF7 cells. Description: Confocal microscopy, colocalisation with MitoTracker Green FM, MCF7 cells. The settings on record: 10 µM conjugate, 10 min at 37 °C; for Pearson's correlation coefficient of MitoTracker Green and Cy3 fluorescence: imaged at 20X; for Pearson's correlation coefficient of MitoTracker Green FM and Cy3 fluorescence: imaged at 63X. As to the method: as §5, §6

By EC50 is commonly meant the concentration at which the effect is half-maximal. For `CC(C)C[C@@H](NC(=O)[C@@H](CCCCN)NC(=O)CCCCC[N+]1=C(/C=C/C=C2\N(C)c3ccccc3C2(C)C)C(C)(C)c2ccccc21)C(=O)N[C@H](C)C(=O)N[C@H](CCCCN)C(=O)N[C@H](CC(C)C)C(=O)N[C@H](C)C(=O)N[C@H](CCCCN)C(=O)N[C@H](CCCCN)C(=O)N[C@H](CC(C)C)C(=O)N[C@H](C)C(=O)N[C@H](CCCCN)C(=O)N[C@H](CC(C)C)C(=O)N[C@H](C)C(=O)N[C@H](CCCCN)C(N)=O` [Compound 6], the EC50 in the assay on KB cells was 3.5 µM; with MCF7 cells, 5.7 µM; with HEK293 cells, 5.3 µM; with SK-OV-3 cells, 6.39 µM. The “Pearson's correlation coefficient of MitoTracker Green and Cy3 fluorescence” value in assay [1] is recorded as 0.74; in assay [2], 0.81. Besides, the “Pearson's correlation coefficient of MitoTracker Green FM and Cy3 fluorescence” value in assay [1] is given as 0.91; in assay [2], 0.61.

Regarding `CC(C)C[C@H](NC(=O)[C@H](CCCCN)NC(=O)CCCCC[N+]1=C(/C=C/C=C2\N(C)c3ccccc3C2(C)C)C(C)(C)c2ccccc21)C(=O)N[C@@H](C)C(=O)N[C@@H](CCCCN)C(=O)N[C@@H](CC(C)C)C(=O)N[C@@H](C)C(=O)N[C@@H](CCCCN)C(=O)N[C@@H](CCCCN)C(=O)N[C@@H](CC(C)C)C(=O)N[C@@H](C)C(=O)N[C@@H](CCCCN)C(=O)N[C@@H](CC(C)C)C(=O)N[C@@H](C)C(=O)N[C@@H](CCCCN)C(N)=O` [Compound 5], the EC50 with KB cells was 6.7 µM; in the assay with MCF7 cells, 7.37 µM; in the assay on HEK293 cells it was 44.3 µM; in the assay on SK-OV-3 cells it was 11 µM. For the same compound, the figures for the “Pearson's correlation coefficient of MitoTracker Green and Cy3 fluorescence” value in assay [1] and in assay [2] were 0.76 and 0.80, respectively. Besides, the “Pearson's correlation coefficient of MitoTracker Green FM and Cy3 fluorescence” value is 0.73 in assay [1] and 0.81 in assay [2].

In the case of `C[C@@H](NC(=O)[C@H](CC1CCCCC1)NC(=O)[C@@H](CCCCN)NC(=O)[C@@H](C)NC(=O)[C@@H](CC1CCCCC1)NC(=O)[C@@H](CCCCN)NC(=O)CCCCC[N+]1=C(/C=C/C=C2\N(C)c3ccccc3C2(C)C)C(C)(C)c2ccccc21)C(=O)N[C@H](CCCCN)C(=O)N[C@H](CCCCN)C(=O)N[C@@H](CC1CCCCC1)C(=O)N[C@H](C)C(=O)N[C@H](CCCCN)C(=O)N[C@H](CC1CCCCC1)C(=O)N[C@H](C)C(=O)N[C@H](CCCCN)C(N)=O` [Compound 7] (X1-[dK][dCha][dA][dK][Cha][dA][dK][dK][Cha][dA][dK][dCha][dA][dK]-NH2), the EC50 with KB cells was 5.5 µM; in the assay with MCF7 cells it was 11.6 µM; in the assay on HEK293 cells, 8.2 µM; in the assay on SK-OV-3 cells, 23 µM. Moreover, the “Pearson's correlation coefficient of MitoTracker Green and Cy3 fluorescence” value worked out at 0.74 in assay [1] and 0.52 in assay [2]. Moreover, the “Pearson's correlation coefficient of MitoTracker Green FM and Cy3 fluorescence” value in assay [1] turned out to be 0.78; in assay [2], 0.63.

Regarding `CC(C)C[C@H](NC(=O)[C@H](CCCCN)NC(=O)[C@H](C)NC(=O)[C@H](CC(C)C)NC(=O)[C@H](CCCCN)NC(=O)[C@H](CCCCN)NC(=O)[C@H](C)NC(=O)[C@H](CC(C)C)NC(=O)[C@H](CCCCN)NC(=O)[C@H](C)NC(=O)[C@H](CC(C)C)NC(=O)[C@H](CCCCN)NC(=O)[C@H](CCCCNC(=O)[C@H](CCC(=O)O)NC(=O)c1ccc(NCc2cnc3nc(N)nc(O)c3n2)cc1)NC(=O)CCCCC[N+]1=C(/C=C/C=C2\N(C)c3ccccc3C2(C)C)C(C)(C)c2ccccc21)C(=O)N[C@@H](C)C(=O)N[C@@H](CCCCN)C(N)=O` [Compound 8], the EC50 in the assay on KB cells was 38.8 µM; in the assay with MCF7 cells, 49.4 µM; in the assay on HEK293 cells it was 35.6 µM; with SK-OV-3 cells, 8.8 µM. Besides, the “Pearson's correlation coefficient of MitoTracker Green and Cy3 fluorescence” value is 0.53 in assay [1] and 0.60 in assay [2]. The “Pearson's correlation coefficient of MitoTracker Green FM and Cy3 fluorescence” value in assay [1] is reported as 0.85; in assay [2] it was 0.69.

In the case of `C[C@@H](NC(=O)[C@H](CC1CCCCC1)NC(=O)[C@@H](CCCCN)NC(=O)[C@@H](C)NC(=O)[C@@H](CC1CCCCC1)NC(=O)[C@@H](CCCCN)NC(=O)[C@H](CCCCNC(=O)[C@H](CCC(=O)O)NC(=O)c1ccc(NCc2cnc3nc(N)nc(O)c3n2)cc1)NC(=O)CCCCC[N+]1=C(/C=C/C=C2\N(C)c3ccccc3C2(C)C)C(C)(C)c2ccccc21)C(=O)N[C@H](CCCCN)C(=O)N[C@H](CCCCN)C(=O)N[C@@H](CC1CCCCC1)C(=O)N[C@H](C)C(=O)N[C@H](CCCCN)C(=O)N[C@H](CC1CCCCC1)C(=O)N[C@H](C)C(=O)N[C@H](CCCCN)C(N)=O` [Compound 10] (X1-K([Glu-Pteroyl])[dK][dCha][dA][dK][Cha][dA][dK][dK][Cha][dA][dK][dCha][dA][dK]-NH2), the EC50 with KB cells was found to be 3.4 µM; with MCF7 cells, 6.9 µM; in the assay with HEK293 cells, 6.8 µM; with SK-OV-3 cells, 6 µM. In addition, the “Pearson's correlation coefficient of MitoTracker Green and Cy3 fluorescence” value in assay [1] is reported as 0.79; in assay [2], 0.68. Further, the “Pearson's correlation coefficient of MitoTracker Green FM and Cy3 fluorescence” value in assay [1] is reported as 0.78; in assay [2] it was 0.60.
